Results taken from ChEMBL document CHEMBL1201862, “PubChem BioAssay data set” (2004).
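Interpolation was linear, between the two tested concentrations surrounding the appropriate level; five concentrations were tested over 48 hours in 96-well plates. GI50 = concentration required for 50% inhibition of growth.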 Calls of active or inactive are those of the source. Cut-off read from the data, not from the text of the source: active = GI50 up to about 1.1 µM and inactive = higher.

Columns and labels:
Assay in all cases: NCI tumour cell line growth inhibition, 48 h
[1] = system: 786-0
[2] = system: A498
[3] = system: A549
[4] = system: ACHN
[5] = system: BT-549
[6] = system: CAKI-1
[7] = system: CCRF-CEM
[8] = system: COLO 205
[9] = system: DU-145
[10] = system: EKVX
[11] = system: HCC 2998
[12] = system: HCT-116
[13] = system: HCT-15
[14] = system: HL-60
[15] = system: HOP-62
[16] = system: HOP-92
[17] = system: HT-29
[18] = system: Hs-578T
[19] = system: IGROV-1
[20] = system: K562
[21] = system: KM12
[22] = system: LOX IMVI
[23] = system: M14
[24] = system: MCF7
[25] = system: MDA-MB-231
[26] = system: MDA-MB-435
[27] = system: MDA-N
[28] = system: MOLT-4
[29] = system: Malme-3M
[30] = system: NCI-H226
[31] = system: NCI-H23
[32] = system: NCI-H460
[33] = system: NCI-H522
[34] = system: NCI/ADR-RES
[35] = system: OVCAR-3
[36] = system: OVCAR-4
[37] = system: OVCAR-5
[38] = system: OVCAR-8
[39] = system: PC-3
[40] = system: RPMI-8226
[41] = system: RXF 393
[42] = system: SF-268
[43] = system: SF-295
[44] = system: SF-539
[45] = system: SK-MEL-28
[46] = system: SK-MEL-2
[47] = system: SK-MEL-5
[48] = system: SK-OV-3
[49] = system: SN12C
[50] = system: SNB-19
[51] = system: SNB-75
[52] = system: SR
[53] = system: SW-620
[54] = system: T47D
[55] = system: TK-10
[56] = system: U-251
[57] = system: UACC-257
[58] = system: UACC-62
[59] = system: UO-31
[60] = system: DMS-114
[61] = system: SNB-78

`CCCCOCCOC1=C(Cl)C(=O)c2c(O)ccc(O)c2C1=O` was tested, and the GI50 [1] was 0.229 µM (active), the GI50 [2] was 1.82 µM (inactive) and the GI50 [3] was 2.11 µM (inactive). The GI50 [4] was 0.321 µM (active), the GI50 [5] was 0.175 µM (active) and the GI50 [6] was 0.407 µM (active). The GI50 [7] was 0.0274 µM (active), the GI50 [8] was 0.194 µM (active) and the GI50 [9] was 1.66 µM (inactive). For the same molecule, the GI50 [10] was 2.94 µM (inactive), the GI50 [11] was 2.5 µM (inactive) and the GI50 [12] was 0.261 µM (active). The GI50 [13] was 0.151 µM, the GI50 [14] was 0.0347 µM (active) and the GI50 [15] was 1.17 µM (inactive). For the same molecule, the GI50 [16] was 0.288 µM (active), the GI50 [17] was 0.689 µM (active) and the GI50 [18] was 2.49 µM (inactive). For the same molecule, the GI50 [19] was 0.855 µM (active), the GI50 [20] was 0.0356 µM (active) and the GI50 [21] was 1.83 µM (inactive). The GI50 [22] was 0.439 µM (active), the GI50 [23] was 0.217 µM (active) and the GI50 [24] was 0.285 µM (active). For the same molecule, the GI50 [25] was 0.493 µM (active), the GI50 [26] was 0.325 µM (active) and the GI50 [27] was 0.272 µM (active). The GI50 [28] was 0.051 µM (active), the GI50 [29] was 0.259 µM (active) and the GI50 [30] was 2.26 µM (inactive). For the same molecule, the GI50 [31] was 0.42 µM (active), the GI50 [32] was 1.49 µM (inactive) and the GI50 [33] was 0.392 µM (active). For the same molecule, the GI50 [34] was 0.614 µM (active), the GI50 [35] was 0.547 µM (active) and the GI50 [36] was 0.822 µM (active). For the same molecule, the GI50 [37] was 1.37 µM (inactive), the GI50 [38] was 0.347 µM (active) and the GI50 [39] was 1.6 µM (inactive). The GI50 [40] was 0.255 µM (active), the GI50 [41] was 0.227 µM (active) and the GI50 [42] was 1.6 µM (inactive). The GI50 [43] was 1.53 µM (inactive), the GI50 [44] was 0.993 µM (active) and the GI50 [45] was 0.562 µM (active). For the same molecule, the GI50 [46] was 1.37 µM (inactive), the GI50 [47] was 0.733 µM (active) and the GI50 [48] was 2.98 µM (inactive). The GI50 [49] was 0.465 µM (active), the GI50 [50] was 1.36 µM (inactive) and the GI50 [51] was 0.687 µM (active). The GI50 [52] was 0.0995 µM (active), the GI50 [53] was 0.188 µM (active) and the GI50 [54] was 0.532 µM (active). For the same molecule, the GI50 [55] was 0.578 µM (active), the GI50 [56] was 1.32 µM (inactive) and the GI50 [57] was 0.429 µM (active). For the same molecule, the GI50 [58] was 1.12 µM (active) and the GI50 [59] was 0.748 µM (active).

`C=CC1=C(C)c2cc3[nH]c(c4c5nc(cc6[nH]c(cc1n2)c(C)c6CC)C(C)=C5C(=O)[C@@H]4C(=O)OC)[C@@H](CCC(=O)O)[C@@H]3C` was tested, and the GI50 [1] was 7.71 µM (inactive), the GI50 [2] was 2.55 µM (inactive) and the GI50 [3] was 3.95 µM (inactive). For the same molecule, the GI50 [4] was 2.27 µM (inactive), the GI50 [5] was 2.31 µM (inactive) and the GI50 [6] was 9.51 µM (inactive). The GI50 [7] was 1.21 µM (inactive), the GI50 [8] was 4.28 µM (inactive) and the GI50 [9] was 33.8 µM (inactive). The GI50 [10] was 10.2 µM (inactive), the GI50 [11] was 2 µM (inactive) and the GI50 [12] was 8.71 µM (inactive). The GI50 [13] was 2.49 µM, the GI50 [14] was 1.37 µM (inactive) and the GI50 [15] was 8.95 µM (inactive). The GI50 [16] was 1.63 µM (inactive), the GI50 [17] was 8.43 µM (inactive) and the GI50 [18] was 3.66 µM (inactive). The GI50 [19] was 7.24 µM (inactive), the GI50 [20] was 1.38 µM (inactive) and the GI50 [21] was 4.83 µM (inactive). The GI50 [22] was 6.22 µM (inactive), the GI50 [23] was 3.66 µM (inactive) and the GI50 [24] was 2.98 µM (inactive). The GI50 [25] was 11.2 µM (inactive), the GI50 [26] was 2.24 µM (inactive) and the GI50 [27] was 5.27 µM (inactive). For the same molecule, the GI50 [28] was 1 µM (active), the GI50 [29] was 12.2 µM (inactive) and the GI50 [30] was 6.01 µM (inactive). For the same molecule, the GI50 [31] was 2.21 µM (inactive), the GI50 [32] was 2.81 µM (inactive) and the GI50 [33] was 7.57 µM (inactive). For the same molecule, the GI50 [34] was 9.02 µM (inactive), the GI50 [35] was 2.04 µM (inactive) and the GI50 [36] was 2.54 µM (inactive). The GI50 [37] was 3.41 µM (inactive), the GI50 [38] was 3.52 µM (inactive) and the GI50 [39] was 3.62 µM (inactive). The GI50 [40] was 2 µM (inactive), the GI50 [41] was 1.29 µM (inactive) and the GI50 [42] was 9.82 µM (inactive). For the same molecule, the GI50 [43] was 2.12 µM (inactive), the GI50 [44] was 1.86 µM (inactive) and the GI50 [45] was 1.64 µM (inactive). For the same molecule, the GI50 [46] was 4.13 µM (inactive), the GI50 [47] was 1.42 µM (inactive) and the GI50 [48] was 4.06 µM (inactive). For the same molecule, the GI50 [49] was 5.45 µM (inactive), the GI50 [50] was 4.09 µM (inactive) and the GI50 [51] was 2.11 µM (inactive). For the same molecule, the GI50 [52] was 0.634 µM (active), the GI50 [53] was 2.5 µM (inactive) and the GI50 [54] was 5.81 µM (inactive). For the same molecule, the GI50 [55] was 2.82 µM (inactive), the GI50 [56] was 3.06 µM (inactive) and the GI50 [57] was 5.32 µM (inactive). For the same molecule, the GI50 [58] was 2.16 µM (inactive) and the GI50 [59] was 2.33 µM (inactive).

With `COc1cc(C)cc2c1[nH]c1ccccc12` [MURRAYAFOLINE A] the GI50 [3] was 11.5 µM (inactive), the GI50 [60] was 9.64 µM (inactive) and the GI50 [15] was 6.53 µM (inactive). The GI50 [20] was > 25 µM (inactive), the GI50 [35] was 8.91 µM (inactive) and the GI50 [36] was > 25 µM (inactive). The GI50 [37] was 24.5 µM (inactive), the GI50 [38] was 7.33 µM (inactive) and the GI50 [40] was 8.65 µM (inactive). The GI50 [41] was 9.16 µM (inactive), the GI50 [50] was > 25 µM (inactive) and the GI50 [61] was > 25 µM (inactive). The GI50 [55] was > 25 µM (inactive).
